We go through nine compounds from patent US20100266716A1, “Natural Photodynamic Agents and their use” (priority 2007, published 2010).

Assay [1] deals with Salmonella choleraesuis. Nature of the assay: MBEC device biofilm photodynamic killing (Example 1). The format is cell-based. Set-up: key to Killing of Salmonella cholerasuis biofilm (eradication or growth): “−” = biofilm eradication at the mentioned conditions (concentration, exposure time and Light source); “+” = biofilm growth. The conditions noted are these: for Killing of Salmonella cholerasuis biofilm (eradication or growth): 16 Hours exposure. An excerpt:
(§1) Test microorganisms included Salmonella choleraesuis, Staphylococcus aureus, foodborne pathogens of humans. Test Compounds included Methylene blue, Hemoglobin (blood product), Hemin (blood product), Protoporphyrin (blood product), Annatto Extract (15% Norbixin), beet juice, Canthaxanthin (10%), Beta-carotene (1%), Purple carmine 50%, Carmine lake 60%, Black Carrot extract, Tomato lycopene (5%), sodium copper chlorophyllin, grape skin extract, paprika oleoresin, riboflavin, saffron, titanium dioxide, FD&C blue No1., turmeric oleoresin, FD&C blue No. 2, FD&C Green No. 3, FD&C Red No. 2 (Amaranth), FD&C Red No. 40, FD&C Yellow No. 5, and FD&C Yellow No. 6. Compounds were prepared as 1%, 0.1%, 0.01%, by weight, dissolved in water.
(§2) The light source was a full spectrum fluorescent light or LED light and the contact time was 1 and 16 hours. The study temperature was 37° C.
(§3) Approximately 10^6 organisms in 150 uL Cation Adjusted Mueller Hinton Broth (CAMHB) were placed in each of the wells of a 96 peg MBEC device. The lid of the 96 peg MBEC device was placed on the bottom plate containing organism. The device was placed on a shaker, set to 110 rpm, and incubated at 37° C. for 24 hours to produce biofilms.
(§4) The challenge plates were set up using a sterile 96-well microtitre plate using aseptic techniques in the following manner (one organism per plate, per light exposure time, per light source). Test solutions (200 uL) were placed into each well. The lid was transferred to the challenge plate and exposed to the various light sources for the prescribed exposure times (16 hours). Following the treatment, the pegs were transferred to the recovery media (“recovery plate”) then wrapped in tin foil and incubated at 37° C. for 18 to 24 hours. The recovery plate(s) was wrapped in tin foil, incubated at 37° C. for 24 hours and read visually and by a plate reader, set to an optical density measurement of 630 nm, to determine Minimum Biofilm Eradication Concentration (MBEC) by looking at growth or no growth.

The subject of assay [2] is Staphylococcus aureus. The assay is described as above. The format is cell-based. Also on record: key to Killing of Staph aureus biofilm (eradication or growth): “−” = biofilm eradication at the mentioned conditions (concentration, exposure time and Light source); “+” = biofilm growth. Conditions: 16 Hours exposure.
Source text: as §1, §2, §3, §4

On to `CCN(Cc1cccc(S(=O)(=O)[O-])c1)c1ccc(C(=C2C=CC(=[N+](CC)Cc3cccc(S(=O)(=O)[O-])c3)C=C2)c2ccccc2S(=O)(=O)[O-])cc1.[Na+].[Na+]` [Blue No. 1, FD&C blue No1.], for which the “Killing of Salmonella cholerasuis biofilm (eradication or growth)” value in assay [1] (Fluorescent Light, 0.01%) is “−”; in assay [1] (Fluorescent Light, 0.1%), “−”; in assay [1] (Fluorescent Light, 1%), “−”; in assay [1] (LED Light, 0.01%), “+”; in assay [1] (LED Light, 0.1%) it was “+”; in assay [1] (LED Light, 1%) it was “+”. Besides, the “effective as photodynamic agent in killing biofilm organisms” value in assay [1] (Salmonella choleraesuis and Staphylococcus aureus biofilm, summary of Table 1) is “Effective”. Further, the “Killing of Staph aureus biofilm (eradication or growth)” value (shortened to “Killing of Staph aureus biofilm”) in assay [2] (Fluorescent Light, 0.01%) is listed as “+”; in assay [2] (Fluorescent Light, 0.1%) it was “+”; in assay [2] (Fluorescent Light, 1%), “+”; in assay [2] (LED Light, 0.01%), “+”; in assay [2] (LED Light, 0.1%) it was “+”; in assay [2] (LED Light, 1%), “+”.

For `O=C1/C(=C2\Nc3ccc(S(=O)(=O)[O-])cc3C2=O)Nc2ccc(S(=O)(=O)[O-])cc21.[Na+].[Na+]` [Blue No. 2, FD&C blue No. 2], the “Killing of Salmonella cholerasuis biofilm (eradication or growth)” value in assay [1] (Fluorescent Light, 0.01%) is on record as “+”; in assay [1] (Fluorescent Light, 0.1%) it was “+”; in assay [1] (Fluorescent Light, 1%), “+”; in assay [1] (LED Light, 0.01%), “+”; in assay [1] (LED Light, 0.1%), “+”; in assay [1] (LED Light, 1%), “+”. Moreover, the “Killing of Staph aureus biofilm” value in assay [2] (Fluorescent Light, 0.01%) is “+”; in assay [2] (Fluorescent Light, 0.1%) it was “+”; in assay [2] (Fluorescent Light, 1%), “+”; in assay [2] (LED Light, 0.01%), “+”; in assay [2] (LED Light, 0.1%) it was “+”; in assay [2] (LED Light, 1%), “+”.

For the compound `CC1=C(/C=C/C(C)=C/C=C/C(C)=C/C=C/C=C(C)/C=C/C=C(C)/C=C/C2=C(C)C(=O)CCC2(C)C)C(C)(C)CCC1=O` [Canthaxanthin], the “Killing of Salmonella cholerasuis biofilm (eradication or growth)” value in assay [1] (Fluorescent Light, 0.01%) was “+”; in assay [1] (Fluorescent Light, 0.1%), “+”; in assay [1] (Fluorescent Light, 1%), “+”; in assay [1] (LED Light, 0.01%) it was “+”; in assay [1] (LED Light, 0.1%), “+”; in assay [1] (LED Light, 1%), “+”. For the same compound, the “Killing of Staph aureus biofilm” value in assay [2] (Fluorescent Light, 0.01%) was “+”; in assay [2] (Fluorescent Light, 0.1%) it was “+”; in assay [2] (Fluorescent Light, 1%), “+”; in assay [2] (LED Light, 0.01%) it was “+”; in assay [2] (LED Light, 0.1%), “+”; in assay [2] (LED Light, 1%), “+”.

`CCN(Cc1cccc(S(=O)(=O)[O-])c1)c1ccc(C(=C2C=CC(=[N+](CC)Cc3cccc(S(=O)(=O)[O-])c3)C=C2)c2ccc(O)cc2S(=O)(=O)[O-])cc1.[Na+].[Na+]` [Green No. 3, FD&C Green No. 3]: the “Killing of Salmonella cholerasuis biofilm (eradication or growth)” value in assay [1] (Fluorescent Light, 0.01%) is on record as “+”; in assay [1] (Fluorescent Light, 0.1%), “+”; in assay [1] (Fluorescent Light, 1%), “+”; in assay [1] (LED Light, 0.01%), “+”; in assay [1] (LED Light, 0.1%) it was “+”; in assay [1] (LED Light, 1%), “+”. Besides, the “Killing of Staph aureus biofilm” value in assay [2] (Fluorescent Light, 0.01%) is listed as “+”; in assay [2] (Fluorescent Light, 0.1%), “+”; in assay [2] (Fluorescent Light, 1%), “+”; in assay [2] (LED Light, 0.01%), “+”; in assay [2] (LED Light, 0.1%), “+”; in assay [2] (LED Light, 1%) it was “+”.

Regarding `O=S(=O)([O-])c1ccc2c(N=Nc3ccc(S(=O)(=O)[O-])c4ccccc34)c(O)c(S(=O)(=O)[O-])cc2c1.[Na+].[Na+].[Na+]` [Red No. 2, FD&C Red No. 2 (Amaranth)], the “Killing of Salmonella cholerasuis biofilm (eradication or growth)” value in assay [1] (Fluorescent Light, 0.01%) was “+”; in assay [1] (Fluorescent Light, 0.1%) it was “+”; in assay [1] (Fluorescent Light, 1%), “+”; in assay [1] (LED Light, 0.01%), “+”; in assay [1] (LED Light, 0.1%), “+”; in assay [1] (LED Light, 1%), “+”. Besides, the “Killing of Staph aureus biofilm” value in assay [2] (Fluorescent Light, 0.01%) is “+”; in assay [2] (Fluorescent Light, 0.1%), “+”; in assay [2] (Fluorescent Light, 1%) it was “+”; in assay [2] (LED Light, 0.01%), “+”; in assay [2] (LED Light, 0.1%), “+”; in assay [2] (LED Light, 1%) it was “+”.

For the compound `COc1cc(S(=O)(=O)[O-])c(C)cc1N=Nc1c(O)ccc2cc(S(=O)(=O)[O-])ccc12.[Na+].[Na+]` [Red No. 40, FD&C Red No. 40], the “Killing of Salmonella cholerasuis biofilm (eradication or growth)” value in assay [1] (Fluorescent Light, 0.01%) is on record as “+”; in assay [1] (Fluorescent Light, 0.1%), “+”; in assay [1] (Fluorescent Light, 1%), “+”; in assay [1] (LED Light, 0.01%), “+”; in assay [1] (LED Light, 0.1%) it was “+”; in assay [1] (LED Light, 1%), “+”. In addition, the “Killing of Staph aureus biofilm” value was “+” in assay [2] (Fluorescent Light, 0.01%); “+” in assay [2] (Fluorescent Light, 0.1%); “+” in assay [2] (Fluorescent Light, 1%); “+” in assay [2] (LED Light, 0.01%); “+” in assay [2] (LED Light, 0.1%); “+” in assay [2] (LED Light, 1%).

`Cc1cc2nc3c(=O)[nH]c(=O)nc-3n(C[C@H](O)[C@H](O)[C@H](O)CO)c2cc1C` [Riboflavin, riboflavin]: the “Killing of Salmonella cholerasuis biofilm (eradication or growth)” value is listed as “+” in assay [1] (Fluorescent Light, 0.01%); “+” in assay [1] (Fluorescent Light, 0.1%); “+” in assay [1] (Fluorescent Light, 1%); “+” in assay [1] (LED Light, 0.01%); “+” in assay [1] (LED Light, 0.1%); “+” in assay [1] (LED Light, 1%). The “Killing of Staph aureus biofilm” value in assay [2] (Fluorescent Light, 0.01%) is listed as “+”; in assay [2] (Fluorescent Light, 0.1%), “+”; in assay [2] (Fluorescent Light, 1%), “+”; in assay [2] (LED Light, 0.01%) it was “+”; in assay [2] (LED Light, 0.1%), “+”; in assay [2] (LED Light, 1%), “+”.

Turning to `O=C([O-])C1=NN(c2ccc(S(=O)(=O)[O-])cc2)C(=O)C1N=Nc1ccc(S(=O)(=O)[O-])cc1.[Na+].[Na+].[Na+]` (stereo not shown) [Yellow No. 5, FD&C Yellow No. 5], the “Killing of Salmonella cholerasuis biofilm (eradication or growth)” value in assay [1] (Fluorescent Light, 0.01%) is “+”; in assay [1] (Fluorescent Light, 0.1%), “+”; in assay [1] (Fluorescent Light, 1%), “+”; in assay [1] (LED Light, 0.01%) it was “+”; in assay [1] (LED Light, 0.1%) it was “+”; in assay [1] (LED Light, 1%), “+”. The “Killing of Staph aureus biofilm” value in assay [2] (Fluorescent Light, 0.01%) is given as “+”; in assay [2] (Fluorescent Light, 0.1%), “+”; in assay [2] (Fluorescent Light, 1%), “+”; in assay [2] (LED Light, 0.01%), “+”; in assay [2] (LED Light, 0.1%), “+”; in assay [2] (LED Light, 1%), “+”.

With `O=S(=O)([O-])c1ccc(N=Nc2c(O)ccc3cc(S(=O)(=O)[O-])ccc23)cc1.[Na+].[Na+]` [Yellow No. 6, FD&C Yellow No. 6], the “Killing of Salmonella cholerasuis biofilm (eradication or growth)” value is “+” in assay [1] (Fluorescent Light, 0.01%); “+” in assay [1] (Fluorescent Light, 0.1%); “+” in assay [1] (Fluorescent Light, 1%); “+” in assay [1] (LED Light, 0.01%); “+” in assay [1] (LED Light, 0.1%); “+” in assay [1] (LED Light, 1%). The “Killing of Staph aureus biofilm” value in assay [2] (Fluorescent Light, 0.01%) is reported as “+”; in assay [2] (Fluorescent Light, 0.1%), “+”; in assay [2] (Fluorescent Light, 1%), “+”; in assay [2] (LED Light, 0.01%), “+”; in assay [2] (LED Light, 0.1%) it was “+”; in assay [2] (LED Light, 1%), “+”.
